The record followed here is patent US12091425B2 (AMGEN INC., priority 2016, dated 2024).

SMILES strings stand for the structures.

Test [1] has as its target T1, Mcl-1/Bim interaction, recombinant human Mcl-1 (171-327) (Homo sapiens, UniProt Q07820).
T1 construct: made in house
Kind of test: Cell free Mcl-1: Bim Affinity Assay (Mcl-1 HTRF). Type of test: binding. In short, it runs like this: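 Displacement of biotinylated Bim 51-76 peptide is followed by TR-FRET. Incubation runs overnight. Duplicate points are fitted with a four-parameter sigmoid to yield IC50.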

The subject of test [2] is OPM-2 human multiple myeloma cell line. In words: Cell Viability Assay (OPM-2 10 FBS). Type of test: cell-based. Conditions: OPM-2 cells, CellTiter-Glo. In short, it runs like this: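 IC50 from 4-parameter logistic fit of CellTiter-Glo luminescence. 3000 cells/well, 10% FBS medium, serial compound dilutions, 16 h, 37 °C/5% CO2; read 25 min post-reagent.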
Setting [3] is: TR-FRET, 0.1 nM Mcl-1 (171-327), 0.05 nM biotin-Bim (51-76).
Where [4] appears, read: Homo sapiens, OPM-2, 16 h, 16 h.
Where [5] appears, read: cell free Mcl-1:Bim TR-FRET, recombinant human Mcl-1 (171-327).
The mark [6] stands for this setting: Homo sapiens, OPM-2, 16 h, 16 h incubation.

T1 sequence (Q07820 171-327): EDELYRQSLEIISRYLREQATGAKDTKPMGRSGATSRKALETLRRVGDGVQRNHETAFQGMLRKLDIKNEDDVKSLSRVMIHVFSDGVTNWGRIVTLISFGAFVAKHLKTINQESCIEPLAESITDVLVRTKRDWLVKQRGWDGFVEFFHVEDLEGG

For `C[C@H]1C/C=C/[C@H](OCCN2CCOCC2)[C@@H]2CC[C@H]2CN2C[C@@]3(CCCc4cc(Cl)ccc43)COc3ccc(cc32)C(=O)NS(=O)(=O)[C@@H]1CC1CC1` (single isomer, unassigned) [Example 386], the IC50 in test [1] (setting [3]) was 0.00063 µM; in test [2] (16 h) it was 0.273 µM.

Regarding `C[C@@H]1[C@@H](C)C/C=C/[C@H](OCc2ncccn2)[C@@H]2CC[C@H]2CN2C[C@@]3(CCCc4cc(Cl)ccc43)COc3ccc(cc32)C(=O)NS1(=O)=O` [Example 317, (1S,3′R,6′R,7′S,8′E,11′S,12′R)-6-chloro-11′,12′-dimethyl-7′-(2-pyrimidinylmethoxy)-3,4-dihydro-2H,15′H-spiro[naphthalene-1,22′-[20]oxa[13]thia[1,14]diazatetracyclo[14.7.2.0^3,6.0^19,24]pentacosa [8,16,18,24]tetraen]-15′-one 13′,13′-dioxide], the IC50 in test [1] (setting [3]) was found to be 0.000223 µM; in test [2] (setting [4]), 0.197 µM.

On to `COC(=O)CC[C@]1(C)CC/C=C/[C@H](O)[C@@H]2CC[C@H]2CN2C[C@@]3(CCCc4cc(Cl)ccc43)COc3ccc(cc32)C(=O)NS1(=O)=O` (single isomer, unassigned) [Example 561], for which the IC50 in test [1] (setting [5]) is 0.00358 µM; in test [2] (16 h) it was 8.47 µM.

As for `COC(=O)CN(CC(=O)OC)[C@H]1/C=C/CC[C@@H](C)S(=O)(=O)NC(=O)c2ccc3c(c2)N(C[C@@H]2CC[C@H]21)C[C@@]1(CCCc2cc(Cl)ccc21)CO3` [Example 600, dimethyl 2,2′-(((1S,3′R,6′R,7′S,8′E,12′R)-6-chloro-12′-methyl-13′,13′-dioxido-15′-oxo-3,4-dihydro-2H-spiro[naphthalene-1,22′-[20]oxa[13]thia[1,14]diazatetracyclo[14.7.2.0^3,6.0^19,24]pentacosa [8,16,18,24]tetraen]-7′-yl)imino)diacetate-trifluoroacetic Acid], the IC50 was 0.000647 µM in test [1] (setting [5]) and 0.104 µM in test [2] (setting [4]).

Take `COC1CN(C(=O)CO[C@H]2/C=C/C[C@H](C)[C@@H](C)S(=O)(=O)NC(=O)c3ccc4c(c3)N(C[C@@H]3CC[C@H]32)C[C@@]2(CCCc3cc(Cl)ccc32)CO4)C1` [Example 307, (1S,3′R,6′R,7′S,8′E,11′S,12′R)-6-chloro-7′-(2-(3-methoxy-1-azetidinyl)-2-oxoethoxy)-11′,12′-dimethyl-3,4-dihydro-2H,15′H-spiro[naphthalene-1,22′-[20]oxa[13]thia[1,14]diazatetracyclo[14.7.2.0^3,6.0^19,24]pentacosa [8,16,18,24]tetraen]-15′-one 13′,13′-dioxide]: the IC50 turned out to be 0.000127 µM in test [1] (setting [3]) and 0.301 µM in test [2] (setting [4]).

With `C[C@H]1C/C=C\[C@H](O)[C@@H]2CC[C@H]2CN2C[C@@]3(CCCc4cc(Cl)ccc43)COc3ccc(cc32)C(=O)NS(=O)(=O)[C@H]1C[C@H]1CCCO1` (single isomer, unassigned) [Example 136], the IC50 in test [1] (setting [3]) came out at 0.000259 µM; in test [2] (setting [4]) it was 0.13 µM.

As to `C[C@@H]1CC/C=C/[C@H](OCc2cnnn2C)[C@@H]2CC[C@H]2CN2C[C@@]3(CCCc4cc(Cl)ccc43)COc3ccc(cc32)C(=O)NS1(=O)=O` [Example 416, (1S,3′R,6′R,7′S,8′E,12′R)-6-chloro-12′-methyl-7′-((1-methyl-1H-1,2,3-triazol-5-yl)methoxy)-3,4-dihydro-2H,15′H-spiro[naphthalene-1,22′-[20]oxa[13]thia[1,14]diazatetracyclo[14.7.2.0^3,6.0^19,24]pentacosa [8,16,18,24]tetraen]-15′-one 13′,13′-dioxide], the IC50 in test [1] (setting [3]) was found to be 0.000377 µM; in test [2] (setting [4]) it was 1.06 µM.

On to `COCC[C@@H]1C[C@H](C)/C=C/[C@H](OC)[C@@H]2CC[C@H]2CN2C[C@@]3(CCCc4cc(Cl)ccc43)COc3ccc(cc32)C(=O)NS1(=O)=O` (single isomer, unassigned) [Example 485], for which the IC50 in test [1] (setting [5]) is 0.000471 µM; in test [2] (16 h), 0.557 µM.

Take `CCC1C(C)C(C)C=CC(O)C2CCC2CN2CC3(CCCc4cc(Cl)ccc43)COc3ccc(cc32)C(=O)NS1(=O)=O` (single isomer, unassigned) [Example 1054]: the IC50 came out at 0.000211 µM in test [1] (setting [3]) and 0.101 µM in test [2] (16 h incubation).

As to `COCCOCCO[C@H]1/C=C/C[C@H](C)[C@@H](C)S(=O)(=O)NC(=O)c2ccc3c(c2)N(C[C@@H]2CC[C@H]21)C[C@@]1(CCCc2cc(Cl)ccc21)CO3` [Example 377, (1S,3′R,6′R,7′S,8′E,11′S,12′R)-6-chloro-7′-(2-(2-methoxyethoxy)ethoxy)-11′,12′-dimethyl-3,4-dihydro-2H,15′H-spiro[naphthalene-1,22′-[20]oxa[13]thia[1,14]diazatetracyclo[14.7.2.0^3,6.0^19,24]pentacosa[8,16,18,24]tetraen]-15′-one 13′,13′-dioxide], the IC50 is 0.000303 µM in test [1] (setting [3]) and 0.18 µM in test [2] (setting [4]).

Regarding `COCCO[C@H]1/C=C\C[C@H](C)N(CCOC)S(=O)(=O)NC(=O)c2ccc3c(c2)N(C[C@@H]2CC[C@H]21)C[C@@]1(CCCc2cc(Cl)ccc21)CO3` (single isomer, unassigned) [Example 65], the IC50 in test [1] (setting [3]) was determined as 0.00238 µM; in test [2] (setting [4]), 1.17 µM.

As to `C[C@@H]1[C@@H](C)C/C=C/[C@H](OCCCO)[C@@H]2CC[C@H]2CN2C[C@@]3(CCCc4cc(Cl)ccc43)COc3ccc(cc32)C(=O)NS1(=O)=O` [Example 509, (1S,3′R,6′R,7′S,8′E,11′S,12′R)-6-chloro-7′-(3-hydroxypropoxy)-11′,12′-dimethyl-3,4-dihydro-2H,15′H-spiro[naphthalene-1,22′-[20]oxa[13]thia[1,14]diazatetracyclo[14.7.2.0^3,6.0^19,24]pentacosa [8,16,18,24]tetraen]-15′-one 13′,13′-dioxide], the IC50 in test [1] (setting [5]) was found to be 0.000188 µM; in test [2] (setting [4]), 0.235 µM.

`O=C1NS(=O)(=O)[C@H]2C[C@H](/C=C/[C@H](O)[C@@H]3CC[C@H]3CN3C[C@@]4(CCCc5cc(Cl)ccc54)COc4ccc1cc43)C2` [Example 102, (1S,3′R,6′R,7′S,8′E,10′R,12′S)-6-chloro-7′-hydroxy-3,4-dihydro-2H,15′H-spiro[naphthalene-1,22′-[20]oxa[13]thia[1,14]diazapentacyclo[14.7.2.1^10,12.0^3,6.0^19,24]hexacosa[8,16,18,24]tetraen]-15′-one 13′,13′-dioxide]: the half-maximal inhibitory concentration (IC50) was found to be 0.00273 µM in test [1] (setting [3]) and 18.6 µM in test [2] (setting [4]).

Consider `C[C@@H]1CS(=O)(=O)NC(=O)c2ccc3c(c2)N(C[C@@H]2CC[C@H]2C(=O)/C=C/[C@@H]1C)C[C@@]1(CCCc2cc(Cl)ccc21)CO3` (single isomer, unassigned) [Example 1059], for which the IC50 in test [1] (setting [3]) came to 0.0097 µM; in test [2] (setting [6]), 4.91 µM.

For the compound `O=C1NS(=O)(=O)N(CC2CCCO2)CCC=CC(O)C2CCC2CN2CC3(CCCc4cc(Cl)ccc43)COc3ccc1cc32` (stereo not shown) [Example 21], the IC50 was found to be 0.000806 µM in test [1] (setting [3]) and 1.08 µM in test [2] (setting [4]).

As to `CCOC(=O)NCCO[C@H]1/C=C/C[C@H](C)[C@@H](C)S(=O)(=O)NC(=O)c2ccc3c(c2)N(C[C@@H]2CC[C@H]21)C[C@@]1(CCCc2cc(Cl)ccc21)CO3` [Example 736, ethyl (2-(((1S,3′R,6′R,7′S,8′E,11′S,12′R)-6-chloro-11′,12′-dimethyl-13′, 13′-dioxido-15′-oxo-3,4-dihydro-2H-spiro[naphthalene-1,22′-[20]oxa[13]thia[1,14]diazatetracyclo[14.7.2.0^3,6.0^19,24]pentacosa[8,16,18,24]tetraen]-7′-yl)oxy)ethyl)carbamate], the IC50 is 0.000891 µM in test [1] (setting [5]) and 0.192 µM in test [2] (setting [4]).

Turning to `C[C@@H]1CC/C=C/[C@H](OCc2cn(C)nn2)[C@@H]2CC[C@H]2CN2C[C@@]3(CCCc4cc(Cl)ccc43)COc3ccc(cc32)C(=O)NS1(=O)=O` [Example 417, (1S,3′R,6′R,7′S,8′E,12′R)-6-chloro-12′-methyl-7′-((1-methyl-1H-1,2,3-triazol-4-yl)methoxy)-3,4-dihydro-2H,15′H-spiro[naphthalene-1,22′-[20]oxa[13]thia[1,14]diazatetracyclo[14.7.2.0^3,6.0^19,24]pentacosa [8,16,18,24]tetraen]-15′-one 13′,13′-dioxide], the IC50 turned out to be 0.000214 µM in test [1] (setting [3]) and 0.834 µM in test [2] (setting [4]).

For the compound `CC[C@@H]1CC/C=C/[C@H](OCc2nccs2)[C@@H]2CC[C@H]2CN2C[C@@]3(CCCc4cc(Cl)ccc43)COc3ccc(cc32)C(=O)NS1(=O)=O` [Example 990, (1S,3′R,6′R,7′S,8′E,12′R)-6-chloro-12′-ethyl-7′-(1,3-thiazol-2-ylmethoxy)-3,4-dihydro-2H,15′H-spiro[naphthalene-1,22′-[20]oxa[13]thia[1,14]diazatetracyclo[14.7.2.0^3,6.0^19,24]pentacosa [8,16,18,24]tetraen]-15′-one 13′,13′-dioxide], the IC50 in test [1] (setting [3]) stood at 0.00309 µM; in test [2] (setting [6]) it was 2.23 µM.

Consider `Cc1ccc(S(=O)(=O)NCCO[C@H]2/C=C/C[C@H](C)[C@@H](C)S(=O)(=O)NC(=O)c3ccc4c(c3)N(C[C@@H]3CC[C@H]32)C[C@@]2(CCCc3cc(Cl)ccc32)CO4)cc1` [Example 726, N-(2-(((1S,3′R,6′R,7′S,8′E,11′S,12′R)-6-chloro-11′,12′-dimethyl-13′, 13′-dioxido-15′-oxo-3,4-dihydro-2H-spiro[naphthalene-1,22′-[20]oxa[13]thia[1,14]diazatetracyclo[14.7.2.0^3,6.0^19,24]pentacosa[8,16,18,24]tetraene]-7′-yl)oxy)ethyl)4-methylbenzenesulfonamide], for which the half-inhibitory concentration (IC50) in test [1] (setting [5]) is 0.0122 µM; in test [2] (setting [4]), 2.15 µM.

Take `CNC(=O)C(OC)C1C=CC2CCC2CN2CC3(CCCc4cc(Cl)ccc43)COc3ccc(cc32)C(=O)NS(=O)(=O)C(C)C(C)C1` (single isomer, unassigned) [Example 361]: the IC50 in test [1] (setting [3]) amounted to 0.000519 µM; in test [2] (setting [4]), 0.509 µM.
